Laboratory results as given in publication PMC11801377, “A uniquely efficacious type of CFTR corrector with complementary mode of action” (Science Advances, 2024).

Legend:
CFTR = test system: CFTR; set-up: method as in earlier work; details: ref [27] (GLPG-2737); ref [21], [26], [27] (ELX); cited from earlier work
F508del.K14A-CFTR = assay: Site-directed mutagenesis immunoblotting, HEK-TREx, F508del.K14A-CFTR; assay type: cell-based, human; details: 40 h, 2 μM
Excerpt: (§1) The human CFTR expressing HEK cell pools with the mutations described below were generated by integrase-mediated homologous recombination of the CFTR sequence into the T-REx HEK293 background (Thermo Fisher Scientific). This expression system allows the tetracycline-inducible expression of genes of interest from one defined insertion site. Parental T-REx-HEK293 cells were cultivated in growth medium: Dulbecco’s modified Eagle’s medium + GlutaMAX-I (#31966, Life Technologies), 10% dialyzed FBS (Gibco, #26400), penicillin (100 U/ml), streptomycin (100 μg/ml), hygromycin B (0.1 mg/ml; Life Technologies), blasticidin (5 μg/ml; Invitrogen, #R210-01), and 0.1 mM nonessential amino acid solution (Invitrogen, #11140-035). Recombinant T-REx-HEK-CFTR cells were generated by lipofectamine transfection (Life Technologies) of plasmids containing mutated versions of CFTR (RefSeq NM_000492) and then cultivated in selection medium [growth medium containing Geneticin (1 mg/ml) (Invitrogen, #10131-027) instead of hygromycin]. The plasmid constructs were synthetized by GENEART (Thermo Fisher Scientific) and designed with the WT CFTR intron 5 to 6 (880 nucleotides) to prevent leaky expression issues during the cloning process in bacteria. […]

S945L CFTR = target: T1, S945L CFTR (Homo sapiens, UniProt P13569, S945L); assay: CFTR correction (immunoblotting), HEK-TREx, S945L; assay type: cell-based; details: 48 hours, IDOR-3 2 μM, IDOR-4 0.4 μM, TEZ 2 μM + ELX 0.4 μM
T1 construct: expressed in transfected cells; host or cells: T-REx HEK293
T1 sequence (P13569 whole entry S945L): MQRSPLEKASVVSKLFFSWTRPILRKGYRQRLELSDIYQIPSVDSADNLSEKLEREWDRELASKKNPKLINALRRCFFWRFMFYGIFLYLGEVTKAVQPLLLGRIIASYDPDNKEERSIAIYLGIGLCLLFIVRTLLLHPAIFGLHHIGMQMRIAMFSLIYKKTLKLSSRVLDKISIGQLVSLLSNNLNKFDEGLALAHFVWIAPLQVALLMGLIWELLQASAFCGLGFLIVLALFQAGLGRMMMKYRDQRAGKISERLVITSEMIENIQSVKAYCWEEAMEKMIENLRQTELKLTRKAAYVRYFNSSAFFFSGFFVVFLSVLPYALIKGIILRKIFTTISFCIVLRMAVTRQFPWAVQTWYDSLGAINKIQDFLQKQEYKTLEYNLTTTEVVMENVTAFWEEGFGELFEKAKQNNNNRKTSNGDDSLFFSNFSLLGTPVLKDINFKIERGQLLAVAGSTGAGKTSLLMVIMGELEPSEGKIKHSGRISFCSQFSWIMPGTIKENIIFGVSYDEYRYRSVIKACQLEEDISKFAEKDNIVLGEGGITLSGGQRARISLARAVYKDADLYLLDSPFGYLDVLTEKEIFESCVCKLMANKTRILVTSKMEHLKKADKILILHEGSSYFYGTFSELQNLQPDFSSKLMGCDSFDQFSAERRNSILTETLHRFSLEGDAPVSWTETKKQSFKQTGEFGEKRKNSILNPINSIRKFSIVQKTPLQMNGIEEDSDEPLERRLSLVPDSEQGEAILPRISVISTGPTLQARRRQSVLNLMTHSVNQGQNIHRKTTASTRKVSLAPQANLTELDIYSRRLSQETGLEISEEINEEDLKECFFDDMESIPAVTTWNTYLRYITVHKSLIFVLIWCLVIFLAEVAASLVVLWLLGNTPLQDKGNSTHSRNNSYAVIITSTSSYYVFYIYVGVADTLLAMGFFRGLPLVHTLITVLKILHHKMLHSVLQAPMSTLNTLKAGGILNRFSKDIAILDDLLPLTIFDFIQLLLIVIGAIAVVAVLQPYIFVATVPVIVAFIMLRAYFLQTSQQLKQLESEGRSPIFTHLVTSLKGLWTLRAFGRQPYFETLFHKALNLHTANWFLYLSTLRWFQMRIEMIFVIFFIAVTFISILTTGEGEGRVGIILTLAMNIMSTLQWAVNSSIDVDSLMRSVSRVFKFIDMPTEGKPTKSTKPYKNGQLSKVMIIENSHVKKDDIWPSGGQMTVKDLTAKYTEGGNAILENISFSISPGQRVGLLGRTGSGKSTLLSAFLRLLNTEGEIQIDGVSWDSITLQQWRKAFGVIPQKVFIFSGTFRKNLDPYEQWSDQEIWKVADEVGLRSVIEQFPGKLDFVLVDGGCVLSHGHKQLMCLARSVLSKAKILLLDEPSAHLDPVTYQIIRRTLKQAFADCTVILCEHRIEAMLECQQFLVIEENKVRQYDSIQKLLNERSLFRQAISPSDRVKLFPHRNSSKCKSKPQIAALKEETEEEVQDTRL
Excerpt: as §1

correction of S945L (S945L CFTR)	Compound	acute effect on CFTR currents (CFTR)	weaker correction by macrocycles as compared to [LUM + BAM] (F508del.K14A-CFTR)
	Cc1nn(C)cc1S(=O)(=O)NC(=O)c1ccc(-n2ccc(OCC(C)(C)C(F)(F)F)n2)nc1N1C[C@@H](C)CC1(C)C [ELX, elexacaftor]	copotentiating effects	
highly effective	COc1cc(CCNC(=O)C2CC(=O)N(C)C(CC(C)C)C(=O)N3CCCCC3C(=O)NC(Cc3ccccc3)COc3ccc4ncc(F)cc4c3C(=O)N2)on1 (stereo not drawn) [IDOR-3]		two- to fourfold
